In the NIST ThermoML archive (doi:10.1021/je900665a):

Details: Capillary rise

CCOCC [diethyl ether]
Details	surface tension liquid-gas [mN/m]
258.17 K	21.49
263.17 K	20.76
268.18 K	20.13
273.18 K	19.62
278.18 K	18.97
283.18 K	18.46
288.18 K	17.82
293.16 K	17.15
298.1 K	16.58
303.17 K	16
308.11 K	15.44
313.19 K	14.87
318.16 K	14.14
323.16 K	13.61
328.12 K	12.96
333.18 K	12.46
338.17 K	11.92
343.17 K	11.28
348.17 K	10.75
353.19 K	10.19
358.18 K	9.575
363.16 K	9.014
368.18 K	8.459
373.17 K	7.914

CC(C)OC(C)C [diisopropyl ether]
Details	surface tension liquid-gas [mN/m]
248.07 K	22.7
253.23 K	22.06
258.1 K	21.55
263.18 K	21.02
268.33 K	20.52
273.46 K	19.93
278.5 K	19.26
283.18 K	18.81
288.18 K	18.3
293.16 K	17.82
298.1 K	17.26
303.17 K	16.76
308.08 K	16.18
313.27 K	15.66
318.17 K	15.09
323.19 K	14.58
328.12 K	14.1
333.12 K	13.68
338.11 K	13.15
343.1 K	12.57
348.1 K	12.11
353.1 K	11.57
358.15 K	11.01
363.17 K	10.56
368.17 K	10.04
373.17 K	9.698

CCCCCCC [heptane]
Details	surface tension liquid-gas [mN/m]
298.13 K	20
303.18 K	19.58
308.12 K	18.97
313.18 K	18.41
318.17 K	17.97
323.2 K	17.48
328.15 K	16.92
